# Patent publication US20180148687A1 (priority 2015, published 2018)
# Where two headings read alike, the source gives them in different places.
# What was measured:
# [1] = molecular target: T1, P2X3 receptors (Homo sapiens, UniProt P56373); format: cell-based
# T1 sequence (P56373 1-397): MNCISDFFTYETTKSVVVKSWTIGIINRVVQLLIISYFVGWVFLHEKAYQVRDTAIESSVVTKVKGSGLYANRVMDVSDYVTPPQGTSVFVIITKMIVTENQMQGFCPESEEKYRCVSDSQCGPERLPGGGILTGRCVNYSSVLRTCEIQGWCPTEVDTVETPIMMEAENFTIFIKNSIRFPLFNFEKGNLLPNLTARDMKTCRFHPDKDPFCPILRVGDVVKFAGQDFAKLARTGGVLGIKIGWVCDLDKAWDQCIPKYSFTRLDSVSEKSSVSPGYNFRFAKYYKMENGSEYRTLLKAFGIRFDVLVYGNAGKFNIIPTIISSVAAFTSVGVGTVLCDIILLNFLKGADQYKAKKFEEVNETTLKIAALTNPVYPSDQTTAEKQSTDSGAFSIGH
# Procedure: (§1) Differentiated cells at 1-2 weeks were loaded with Fluo-4-AM fluorescence dye (Invitrogen, Calif.) for 1 hr incubation followed by 45 mins period for de-esterification. Cells were washed and incubated in Hanks' balanced salt solution (HBSS), supplemented with 25 mM HEPES buffer, 5.5 mM Glucose. Calcium flux was monitored using an Olympus IX81 inverted epi-fluorescence microscope (Olympus, Markham, ON) coupled to a xenon arc lamp (EXFO, Quebec, QC). Indicated agonists, α,β-methylene-ATP or capsaicin, were diluted in the aforementioned solution and added to the well to give the final stimulation concentration (30 μM α,β-methylene-ATP, 1 μM capsaicin) using a dropping pipette and aspirator system. Fluorescence images were collected using an EMCCD camera (Photometrics, Tucson, Ark.) every 2 s through a GFP filter cube (Semrock, Rochester, N.Y.). In a subset of wells, ionomycin was added as a second stimulation for the dye loading control. […] Off-line analysis of the intensity pattern of Fluo-4 signal was performed in ImageJ (NIH, Bethesda, Md.).
# [2] = molecular target: T2, TRPV1 vanilloid receptor (Homo sapiens, UniProt Q8NER1); experiment: Calcium imaging (Fluo-4) of BD-iNPC derived sensory neurons, capsaicin response; format: cell-based; conditions: 1 μM
# T2 construct: endogenous in cells; host or cells: nociceptive sensory neurons differentiated from human blood derived iNPCs
# Procedure: as §1
# [3] = test system: BD-iNPC derived sensory neurons; experiment: In vitro chemotherapy induced neuropathy model: neurite length and cell count; format: cell-based, human; conditions: 48 hours after treatment
# Text: This miniaturized and automated approach illustrates the potential utility of these converted cells as an in vitro model of human axonopathy for drug-discovery and form the basis to expand to other PNS and CNS disorders.
# [4] = test system: voltage-activated sodium channels; format: cell-based, human
# T2 sequence (Q8NER1 whole entry): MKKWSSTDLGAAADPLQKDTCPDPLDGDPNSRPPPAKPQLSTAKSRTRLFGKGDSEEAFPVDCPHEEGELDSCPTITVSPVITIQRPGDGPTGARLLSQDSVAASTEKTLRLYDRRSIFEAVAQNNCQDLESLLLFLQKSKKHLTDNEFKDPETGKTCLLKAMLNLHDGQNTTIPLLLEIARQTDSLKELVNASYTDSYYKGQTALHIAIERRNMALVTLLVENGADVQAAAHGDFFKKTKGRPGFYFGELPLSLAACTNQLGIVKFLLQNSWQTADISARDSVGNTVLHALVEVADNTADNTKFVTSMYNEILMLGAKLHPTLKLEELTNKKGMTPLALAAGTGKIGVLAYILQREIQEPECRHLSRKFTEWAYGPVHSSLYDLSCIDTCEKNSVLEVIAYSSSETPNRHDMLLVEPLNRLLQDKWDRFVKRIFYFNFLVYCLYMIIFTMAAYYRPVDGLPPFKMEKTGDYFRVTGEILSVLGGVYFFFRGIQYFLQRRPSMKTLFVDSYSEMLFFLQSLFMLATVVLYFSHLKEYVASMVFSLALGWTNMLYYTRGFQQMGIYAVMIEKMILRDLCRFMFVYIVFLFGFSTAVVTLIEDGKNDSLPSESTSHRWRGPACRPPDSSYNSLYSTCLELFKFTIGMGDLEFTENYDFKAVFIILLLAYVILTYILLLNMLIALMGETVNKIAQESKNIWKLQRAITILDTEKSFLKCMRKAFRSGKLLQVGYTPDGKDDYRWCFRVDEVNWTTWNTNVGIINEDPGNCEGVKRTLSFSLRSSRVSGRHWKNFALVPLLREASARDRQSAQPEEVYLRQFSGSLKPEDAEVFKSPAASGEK
smiles,measurement,setting,value
O=C(O)c1cc(C(=O)O)c(C(=O)N(Cc2cccc(Oc3ccccc3)c2)[C@H]2CCCc3ccccc32)cc1C(=O)O [A-317491],"calcium-response to α,β-methylene ATP","[1]; antagonist added 15 min before calcium imaging, 30 μM α,β-methylene-ATP stimulation",significantly decreased
"Nc1ncnc2c1ncn2[C@@H]1O[C@H](COP(=O)(O)CP(=O)(O)OP(=O)(O)O)[C@@H](O)[C@H]1O [α,β-methylene-ATP]",calcium transients in BD-iNPC derived neurons,[1]; 30 μM,could evoke calcium transients
same,calcium flux response,"[1]; 30 μM, continued culture to day 14",robust response
same,calcium flux response,"[1]; 30 μM, neurons at day 7 post-induction",minimal response
COc1cc(CNC(=O)CCCC/C=C/C(C)C)ccc1O [capsaicin],calcium transients in BD-iNPC derived neurons,[2],could evoke calcium transients
CC(=O)O[C@H]1C(=O)[C@@]2(C)[C@H]([C@H](OC(=O)c3ccccc3)[C@]3(O)C[C@H](OC(=O)[C@H](O)[C@@H](NC(=O)c4ccccc4)c4ccccc4)C(C)=C1C3(C)C)[C@]1(OC(C)=O)CO[C@@H]1C[C@@H]2O [Taxol],neurite length of sensory neurons,[3],dose-dependent reduction in length
same,viability (cell count) of sensory neurons,[3],without concomitant loss of viability
NC1=N[C@H](O)[C@H]2[C@H]3O[C@]4(O)O[C@@H]([C@@H](O)[C@@]2(N1)[C@@H]4O)[C@]3(O)CO [tetrodotoxin],rapidly activating and inactivating inward currents,[4],blocked
